Columns and labels:
JH2 domain of human Tyk2 = JH2 domain of human Tyk2 (Homo sapiens (Human), UniProt P29597); test: JH2 Biochemical Assay (TR-FRET probe displacement); assay type: binding; conditions: JH2 domain of human Tyk2, TR-FRET probe displacement
Tyk2 = Tyk2 (Homo sapiens (Human), UniProt P29597); test: pSTAT4 Cell Assay (MSD, NK92 cells); assay type: cell-based; conditions: MSD
Sequence of Tyk2 (P29597 whole entry): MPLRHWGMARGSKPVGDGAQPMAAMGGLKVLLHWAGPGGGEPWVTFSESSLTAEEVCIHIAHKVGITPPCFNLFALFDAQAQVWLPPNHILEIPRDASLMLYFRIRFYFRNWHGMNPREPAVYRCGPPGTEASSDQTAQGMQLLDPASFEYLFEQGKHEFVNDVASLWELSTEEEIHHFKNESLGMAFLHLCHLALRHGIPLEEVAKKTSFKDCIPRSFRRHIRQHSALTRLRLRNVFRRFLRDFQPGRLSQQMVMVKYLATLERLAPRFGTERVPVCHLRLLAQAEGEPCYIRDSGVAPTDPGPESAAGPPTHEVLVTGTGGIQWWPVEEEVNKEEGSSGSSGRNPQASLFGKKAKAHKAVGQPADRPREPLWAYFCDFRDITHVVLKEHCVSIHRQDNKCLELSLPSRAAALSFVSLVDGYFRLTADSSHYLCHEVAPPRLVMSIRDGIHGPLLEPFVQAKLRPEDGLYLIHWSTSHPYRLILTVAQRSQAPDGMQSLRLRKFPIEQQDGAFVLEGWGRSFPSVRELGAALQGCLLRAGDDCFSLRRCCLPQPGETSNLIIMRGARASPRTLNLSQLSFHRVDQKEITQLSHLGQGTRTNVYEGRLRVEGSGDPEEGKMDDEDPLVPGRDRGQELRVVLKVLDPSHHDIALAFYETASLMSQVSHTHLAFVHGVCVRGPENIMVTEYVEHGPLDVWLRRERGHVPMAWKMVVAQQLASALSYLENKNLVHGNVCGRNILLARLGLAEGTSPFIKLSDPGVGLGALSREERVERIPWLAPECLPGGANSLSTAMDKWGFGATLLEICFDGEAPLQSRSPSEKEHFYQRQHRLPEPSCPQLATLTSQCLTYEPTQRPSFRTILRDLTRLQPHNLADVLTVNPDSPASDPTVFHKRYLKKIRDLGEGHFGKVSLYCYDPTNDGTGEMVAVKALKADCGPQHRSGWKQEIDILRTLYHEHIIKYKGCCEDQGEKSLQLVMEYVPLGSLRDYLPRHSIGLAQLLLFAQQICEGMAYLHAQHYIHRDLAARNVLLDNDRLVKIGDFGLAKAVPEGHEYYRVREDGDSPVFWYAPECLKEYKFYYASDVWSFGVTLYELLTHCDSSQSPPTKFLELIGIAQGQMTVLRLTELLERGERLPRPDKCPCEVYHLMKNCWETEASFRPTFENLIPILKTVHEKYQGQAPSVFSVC

Sequence of JH2 domain of human Tyk2 (P29597 575-876): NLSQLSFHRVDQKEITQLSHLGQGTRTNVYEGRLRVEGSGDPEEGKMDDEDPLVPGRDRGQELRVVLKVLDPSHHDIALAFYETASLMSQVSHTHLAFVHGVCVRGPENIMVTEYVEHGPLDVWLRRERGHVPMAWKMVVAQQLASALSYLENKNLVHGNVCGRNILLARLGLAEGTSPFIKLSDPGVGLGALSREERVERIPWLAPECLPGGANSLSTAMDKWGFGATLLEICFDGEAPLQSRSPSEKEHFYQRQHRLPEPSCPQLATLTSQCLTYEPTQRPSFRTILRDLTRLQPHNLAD

Row | Compound | IC50 (JH2 domain of human Tyk2) [nM] | IC50 (Tyk2) [nM]
1 | CC(=O)Nc1cc(Nc2cc(C)nc(C(C)(F)F)n2)c(-c2ccn(C(C)C)n2)cn1 [Example 603, N-(4-((2-(1,1-difluoroethyl)-6-methylpyrimidin-4-yl)amino)-5-(1-isopropyl-1H-pyrazol-3-yl)pyridin-2-yl)acetamide] | ≤ 10 | ≤ 10
2 | CC(=O)Nc1cc(Nc2cc(C)nc(C(C)(F)F)n2)c(-c2nccs2)cn1 [Example 605, N-(4-((2-(1,1-difluoroethyl)-6-methylpyrimidin-4-yl)amino)-5-(thiazol-2-yl)pyridin-2-yl)acetamide] | ≤ 10 | 10 to 100
3 | CC(=O)Nc1cc(Nc2cc(C)nc(C(C)(F)F)n2)c(-c2csc(C)n2)cn1 [Example 606, N-(4-((2-(1,1-difluoroethyl)-6-methylpyrimidin-4-yl)amino)-5-(2-methylthiazol-4-yl)pyridin-2-yl)acetamide] | ≤ 10 | ≤ 10
4 | CC(=O)Nc1cc(Nc2cc(C)nc(C(C)(F)F)n2)c(-c2cn(C)nn2)cn1 [Example 607, N-(4-((2-(1,1-difluoroethyl)-6-methylpyrimidin-4-yl)amino)-5-(1-methyl-1H-1,2,3-triazol-4-yl)pyridin-2-yl)acetamide] | ≤ 10 | ≤ 10
5 | CC(=O)Nc1cc(Nc2cc(C)nc(C(C)(F)F)n2)c(-c2cnn(C(C)C)n2)cn1 [Example 610, N-(4-((2-(1,1-difluoroethyl)-6-methylpyrimidin-4-yl)amino)-5-(2-isopropyl-2H-1,2,3-triazol-4-yl)pyridin-2-yl)acetamide] | ≤ 10 | ≤ 10
6 | CC(=O)Nc1cc(Nc2cc(C)nc(C(C)(F)F)n2)c(-c2nnc(C(C)(C)C)s2)cn1 [Example 611, N-(5-(5-(tert-butyl)-1,3,4-thiadiazol-2-yl)-4-((2-(1,1-difluoroethyl)-6-methylpyrimidin-4-yl)amino)pyridin-2-yl)acetamide] | ≤ 10 | ≤ 10
7 | CC(=O)Nc1cc(Nc2cc(C)nc(C(C)(F)F)n2)c(-c2csc(C(C)C)n2)cn1 [Example 612, N-(4-((2-(1,1-difluoroethyl)-6-methylpyrimidin-4-yl)amino)-5-(2-isopropylthiazol-4-yl)pyridin-2-yl)acetamide] | ≤ 10 | ≤ 10
8 | CCn1ccc(-c2cnc(NC(C)=O)cc2Nc2cc(C)nc(C(C)(F)F)n2)n1 [Example 613, N-(4-((2-(1,1-difluoroethyl)-6-methylpyrimidin-4-yl)amino)-5-(1-ethyl-1H-pyrazol-3-yl)pyridin-2-yl)acetamide] | ≤ 10 | ≤ 10
9 | CC(=O)Nc1cc(Nc2cc(C)nc(C(C)(F)F)n2)c(-c2ccn(CC3CC3)n2)cn1 [Example 614, N-(5-(1-(cyclopropylmethyl)-1H-pyrazol-3-yl)-4-((2-(1,1-difluoroethyl)-6-methylpyrimidin-4-yl)amino)pyridin-2-yl)acetamide] | ≤ 10 | ≤ 10
10 | CCCn1ccc(-c2cnc(NC(C)=O)cc2Nc2cc(C)nc(C(C)(F)F)n2)n1 [Example 615, N-(4-((2-(1,1-difluoroethyl)-6-methylpyrimidin-4-yl)amino)-5-(1-propyl-1H-pyrazol-3-yl)pyridin-2-yl)acetamide] | ≤ 10 | ≤ 10
11 | COc1nc(-c2cnc(NC(C)=O)cc2Nc2cc(C)nc(C(C)(F)F)n2)cs1 [Example 617, N-(4-((2-(1,1-difluoroethyl)-6-methylpyrimidin-4-yl)amino)-5-(2-methoxythiazol-4-yl)pyridin-2-yl)acetamide] | ≤ 10 | ≤ 10
12 | CC(=O)Nc1cc(Nc2cc(C)nc(C(C)(F)F)n2)c(-c2cc(C)n(C)n2)cn1 [Example 619, N-(4-((2-(1,1-difluoroethyl)-6-methylpyrimidin-4-yl)amino)-5-(1,5-dimethyl-1H-pyrazol-3-yl)pyridin-2-yl)acetamide] | ≤ 10 | ≤ 10
13 | CC(=O)Nc1cc(Nc2cc(C)nc(C(C)(F)F)n2)c(-c2cccc(F)n2)cn1 [Example 623, N-(4′-((2-(1,1-difluoroethyl)-6-methylpyrimidin-4-yl)amino)-6-fluorO[2,3′-bipyridin]-6′-yl)acetamide] | ≤ 10 | ≤ 10
14 | CC(=O)Nc1cc(Nc2cc(C)nc(C(C)(F)F)n2)c(-c2cc(N(C)C)ccn2)cn1 [Example 627, N-(4′-((2-(1,1-difluoroethyl)-6-methylpyrimidin-4-yl)amino)-4-(dimethylamino)-[2,3′-bipyridin]-6′-yl)acetamide] | 100 to 1000 | ≥ 1000
15 | CC(=O)Nc1cc(Nc2cc(C)nc(C(C)(F)F)n2)c(-c2cccc(N3CCOCC3)n2)cn1 [Example 628, N-(4′-((2-(1,1-difluoroethyl)-6-methylpyrimidin-4-yl)amino)-6-morpholinO[2,3′-bipyridin]-6′-yl)acetamide] | ≤ 10 | ≤ 10
16 | CC(=O)Nc1cc(Nc2cc(C)nc(C(C)(F)F)n2)c(-c2cccc(C#N)n2)cn1 [Example 630, N-(6-cyanO4′-((2-(1,1-difluoroethyl)-6-methylpyrimidin-4-yl)amino)-[2,3′-bipyridin]-6′-yl)acetamide] | ≤ 10 | ≤ 10

Row | Compound | IC50 (JH2 domain of human Tyk2) [nM] | IC50 (Tyk2) [nM]
17 | CC(=O)Nc1cc(Nc2cc(C)nc(C(C)(F)F)n2)c(-c2cc(C#N)ccn2)cn1 [Example 631, N-(4-cyanO4′-((2-(1,1-difluoroethyl)-6-methylpyrimidin-4-yl)amino)-[2,3′-bipyridin]-6′-yl)acetamide] | ≤ 10 | 10 to 100
18 | CC(=O)Nc1cc(Nc2cc(C)nc(C(C)(F)F)n2)c(-c2ncc(C#N)cc2F)cn1 [Example 632, N-(5-cyanO4′-((2-(1,1-difluoroethyl)-6-methylpyrimidin-4-yl)amino)-3-fluorO[2,3′-bipyridin]-6′-yl)acetamide] | 10 to 100 | ≥ 1000
19 | CC(=O)Nc1cc(Nc2cc(C)nc(C(C)(F)F)n2)c(-c2ccc(F)c(C#N)n2)cn1 [Example 633, N-(6-cyanO4′-((2-(1,1-difluoroethyl)-6-methylpyrimidin-4-yl)amino)-5-fluorO[2,3′-bipyridin]-6′-yl)acetamide] | ≤ 10 | ≤ 10
20 | COc1cccc(-c2cnc(NC(C)=O)cc2Nc2cc(C)nc(C(C)(F)F)n2)n1 [Example 635, N-(4′-((2-(1,1-difluoroethyl)-6-methylpyrimidin-4-yl)amino)-6-methoxy-[2,3′-bipyridin]-6′-yl)acetamide] | ≤ 10 | ≤ 10
21 | COc1ccc(-c2cnc(NC(C)=O)cc2Nc2cc(C)nc(C(C)(F)F)n2)nc1OC [Example 637, N-(4′-((2-(1,1-difluoroethyl)-6-methylpyrimidin-4-yl)amino)-5,6-dimethoxy-[2,3′-bipyridin]-6′-yl)acetamide] | ≤ 10 | ≤ 10
22 | CC(=O)Nc1cc(Nc2cc(C)nc(C(C)(F)F)n2)c(-c2cccc(C3CN(C)CCO3)n2)cn1 (centres unmarked) [Example 640, N-(4′-((2-(1,1-difluoroethyl)-6-methylpyrimidin-4-yl)amino)-6-(4-methylmorpholin-2-yl)-[2,3′-bipyridin]-6′-yl)acetamide] | ≤ 10 | ≤ 10
23 | CC(=O)Nc1cc(Nc2cc(C)nc(C(C)(F)F)n2)c(-c2cccc(C3CCCCO3)n2)cn1 (centres unmarked) [Example 647, N-(4′-((2-(1,1-difluoroethyl)-6-methylpyrimidin-4-yl)amino)-6-(tetrahydro2H-pyran-2-yl)-[2,3′-bipyridin]-6′-yl)acetamide] | ≤ 10 | ≤ 10
24 | CC(=O)Nc1cc(Nc2cc(C)nc(C(C)(F)F)n2)c(-c2ccc(CN3CCOCC3)cn2)cn1 [Example 649, N-(4′-((2-(1,1-difluoroethyl)-6-methylpyrimidin-4-yl)amino)-5-(morpholinomethyl)-[2,3′-bipyridin]-6′-yl)acetamide] | ≤ 10 | ≤ 10
25 | CC(=O)Nc1cc(Nc2cc(C)nc(C(C)(F)F)n2)c(-c2cccc(CN3CCOCC3)n2)cn1 [Example 650, N-(4′-((2-(1,1-difluoroethyl)-6-methylpyrimidin-4-yl)amino)-6-(morpholinomethyl)-[2,3′-bipyridin]-6′-yl)acetamide] | ≤ 10 | ≤ 10
26 | CC(=O)Nc1cc(Nc2cc(C)nc(C(C)(F)F)n2)c(-c2cccc(C(C)(C)C#N)n2)cn1 [Example 654, N-(6-(2-cyanopropan-2-yl)-4′-((2-(1,1-difluoroethyl)-6-methylpyrimidin-4-yl)amino)-[2,3′-bipyridin]-6′-yl)acetamide] | ≤ 10 | ≤ 10
27 | COc1cnc(-c2cnc(NC(C)=O)cc2Nc2cc(C)nc(C(C)(F)F)n2)nc1 [Example 656, N-(4-((2-(1,1-difluoroethyl)-6-methylpyrimidin-4-yl)amino)-5-(5-methoxypyrimidin-2-yl)pyridin-2-yl)acetamide] | ≤ 10 | ≤ 10
28 | CC(=O)Nc1cc(Nc2cc(C)nc(C(C)(F)F)n2)c(-c2nc(C)cc(C#N)n2)cn1 [Example 657, N-(5-(4-cyanO6-methylpyrimidin-2-yl)-4-((2-(1,1-difluoroethyl)-6-methylpyrimidin-4-yl)amino)pyridin-2-yl)acetamide] | 10 to 100 | 100 to 1000
29 | CC(=O)Nc1cc(Nc2cc(C)nc(C(C)(F)F)n2)c(-c2cnc(COC(F)F)cn2)cn1 [Example 662, N-(4-((2-(1,1-difluoroethyl)-6-methylpyrimidin-4-yl)amino)-5-(5-((difluoromethoxy)methyl)pyrazin-2-yl)pyridin-2-yl)acetamide] | ≤ 10 | 10 to 100
30 | COc1nc(-c2cnc(NC(C)=O)cc2Nc2cc(C)nc(C(C)(F)F)n2)ncc1C [Example 663, N-(4-((2-(1,1-difluoroethyl)-6-methylpyrimidin-4-yl)amino)-5-(4-methoxy-5-methylpyrimidin-2-yl)pyridin-2-yl)acetamide] | 10 to 100 | ≥ 1000
31 | COCc1cc(-c2cnc(NC(C)=O)cc2Nc2cc(C)nc(C(C)(F)F)n2)ncn1 [Example 665, N-(4-((2-(1,1-difluoroethyl)-6-methylpyrimidin-4-yl)amino)-5-(6-(methoxymethyl)pyrimidin-4-yl)pyridin-2-yl)acetamide] | ≤ 10 | 10 to 100
